Assay results: patent publication US20080109040A1, “METHOD OF TREATING ARRHYTHMIAS” (priority 2002, published 2008)
Read-outs that look alike come from different tables or passages of the source.

Experiments:
anesthetized dog = assay: QT prolongation and arrhythmia induction in anesthetized dog with AV block and phenylephrine challenge
Description: Dogs were pretreated with Atravet (0.07 mg/kg sc) and then 15 minutes later anesthetized with ketamine (5.3 mg/kg iv) and valium (0.25 mg/kg iv) followed by isoflurane (1-2%), intubated and subjected to mechanical ventilation. They were then subjected to AV block with radiofrequency ablation. A median sternotomy was performed and catheters were inserted into a femoral artery for blood pressure (BP) recording and into both femoral veins for infusion of test drugs. Bipolar electrodes were inserted into both ventricles for programmed stimulation determination of refractory periods (extrastimulus technique), as well as for evaluation of QT interval and QRS duration at various controlled basic cycle lengths (BCLs). TdP was induced by challenges of phenylephrine, which were given as bolus intravenous doses of 10, 20, 30, 40 and 50 μg/kg. After each dose, the ECG was monitored continuously to detect arrhythmias. […] Test drug effects were evaluated as per protocols below.
Data are presented as the mean ±S.E.M. Statistical comparisons were made with Student's t test. A 2-tailed probability<0.05 was taken to indicate statistical significance. In data tables, * denotes P<0.05, **P<0.01.
Group 2 (6 dogs): Five dogs received ranolazine as a 0.5 mg/kg iv load followed by a first, a second and a third continuous iv infusion of 1.0, 3.0 and 15 mg/kg/hr, respectively. One dog received ranolazine as a 1.5 mg/kg iv load followed by infusions of 15 and 30 mg/kg/hr. […] The phenylephrine challenges were then given, with all doses given at each drug infusion rate, and any arrhythmias monitor.

M cell preparations = system: M cell preparations; set-up: species or system canine; conditions: for Amplitude / Overshoot / RMP: BCL = 500 msec; for Reduction of Vmax: preparation type not stated
Description: The composition of the Tyrode's solution was (in mM): […] Action potential recordings: Transmembrane potentials were recorded using standard glass microelectrodes filled with 2.7 M KCl (10 to 20 MΩ DC resistance) connected to a high input-impedance amplification system (World Precision Instruments, Sarasota, Fla., USA). […] Data recorded at BCLs of 500 and 2000 msec are presented.

[1] = ranolazine 0.5 mg/kg iv load + 1.0 mg/kg/hr, BCL 300
[2] = ranolazine 0.5 mg/kg iv load + 1.0 mg/kg/hr, BCL 400
[3] = ranolazine 0.5 mg/kg iv load + 1.0 mg/kg/hr, BCL 600
[4] = ranolazine 3.0 mg/kg/hr, BCL 300
[5] = ranolazine 3.0 mg/kg/hr, BCL 400
[6] = ranolazine 3.0 mg/kg/hr, BCL 600
[7] = ranolazine 3.0 mg/kg/hr, BCL 1000
[8] = ranolazine 15 mg/kg/hr, BCL 400
[9] = ranolazine 15 mg/kg/hr, BCL 600
[10] = ranolazine 15 mg/kg/hr, BCL 1000
[11] = M cell, low [K+]o, BCL = 2000 msec

COc1ccccc1OCC(O)CN1CCN(CC(=O)Nc2c(C)cccc2C)CC1 (racemic) [ranolazine, N-(2,6-dimethylphenyl)-4-[2-hydroxy-3-(2-methoxyphenoxy)propyl]-1-piperazineacetamide]
Induction of torsades de pointes and/or ventricular fibrillation (anesthetized dog; dog, in vivo): unable to induce any
Maximum increase of QT interval (anesthetized dog; dog, in vivo, 3 mg/kg, 30 min): about 10%
Arrhythmia occurrence (anesthetized dog; dog, in vivo, 30 min): VT 13 beats,
Mean ERP-LV + SE (anesthetized dog; [1]): 185.00 ± 8.1 ms
Mean ERP-RV + SE (anesthetized dog; [1]): 182.84 ± 6.67 ms
Mean ERP-LV + SE (anesthetized dog; [2]): 204.38 ± 11.01 ms
Mean ERP-RV + SE (anesthetized dog; [2]): 201.50 ± 6.45 ms
Mean ERP-LV + SE (anesthetized dog; [3]): 233.13 ± 12.43 ms
Mean ERP-RV + SE (anesthetized dog; [3]): 227.50 ± 8.87 ms
Mean ERP-LV + SE (anesthetized dog; ranolazine 0.5 mg/kg iv load + 1.0 mg/kg/hr, BCL 1000): 259.38 ± 18.18 ms
Outcome of the high-dose dog (anesthetized dog; ranolazine 1.5 mg/kg iv load, 15 then 30 mg/kg/hr infusion): died of pump failure
Mean ERP-LV + SE (anesthetized dog; [4]): 189.38 ± 8.32 ms
Mean ERP-RV + SE (anesthetized dog; [4]): 181.00 ± 2.32 ms
Mean ERP-LV + SE (anesthetized dog; [5]): 211.45 ± 9.2 ms
Mean ERP-RV + SE (anesthetized dog; [5]): 199.66 ± 3.75 ms
Mean ERP-LV + SE (anesthetized dog; [6]): 238.13 ± 13.25 ms
Mean ERP-RV + SE (anesthetized dog; [6]): 224.50 ± 4.83 ms
Mean ERP-LV + SE (anesthetized dog; [7]): 265.43 ± 19.42 ms
Mean ERP-RV + SE (anesthetized dog; [7]): 249.50 ± 6.19 ms
Mean ERP-RV + SE (anesthetized dog; ranolazine 15 mg/kg/hr, BCL 300): 185.00 ± 5.76 ms
Mean ERP-LV + SE (anesthetized dog; [8]): 215.00 ± 10.05 ms
Mean ERP-RV + SE (anesthetized dog; [8]): 206.50 ± 5.79 ms
Mean ERP-LV + SE (anesthetized dog; [9]): 237.50 ± 14.11 ms
Mean ERP-RV + SE (anesthetized dog; [9]): 229.50 ± 6.19 ms
Mean ERP-LV + SE (anesthetized dog; [10]): 260.43 ± 19.32 ms
Mean ERP-RV + SE (anesthetized dog; [10]): 253.16 ± 7.77 ms
Mean increase of ERP (anesthetized dog; ranolazine infusions): ≤ 10%
Effect on APD (M cell preparations; M cell preparations, BCL 500 msec): abbreviation
Effect on APD50 and APD90 (M cell preparations; M cell, [K+]o = 4 mM, BCL = 2000 msec): concentration-dependent abbreviation
Effect on repolarization (M cell preparations; M cell, low [K+]o, BCL 500 msec): little change
Effect on APD50 (M cell preparations; [11]): concentration-dependent abbreviation
Effect on APD90 (M cell preparations; [11]): no significant change
Amplitude (M cell preparations; M cell, ranolazine 1.0 μM): 109 ± 9
Overshoot (M cell preparations; M cell, ranolazine 1.0 μM): 23 ± 10
RMP (M cell preparations; M cell, ranolazine 1.0 μM): −86 ± 3
Amplitude (M cell preparations; M cell, ranolazine 5.0 μM): 114 ± 8
Overshoot (M cell preparations; M cell, ranolazine 5.0 μM): 27 ± 7
RMP (M cell preparations; M cell, ranolazine 5.0 μM): −86 ± 3
Amplitude (M cell preparations; M cell, ranolazine 10.0 μM): 113 ± 9
Overshoot (M cell preparations; M cell, ranolazine 10.0 μM): 25 ± 8
RMP (M cell preparations; M cell, ranolazine 10.0 μM): −86 ± 2
Amplitude (M cell preparations; M cell, ranolazine 50.0 μM): 104 ± 7
Overshoot (M cell preparations; M cell, ranolazine 50.0 μM): 19 ± 3
RMP (M cell preparations; M cell, ranolazine 50.0 μM): −86 ± 5
Amplitude (M cell preparations; M cell, ranolazine 100.0 μM): 91 ± 19
Overshoot (M cell preparations; M cell, ranolazine 100.0 μM): 9 ± 13
RMP (M cell preparations; M cell, ranolazine 100.0 μM): −86 ± 7
Reduction of Vmax (M cell preparations; ranolazine 10 μM, BCL 500 msec): modest (n.s.)
Reduction of Vmax (M cell preparations; ranolazine 100 μM, BCL 500 msec): more substantial
Preparations in which d-sotalol-induced EAD activity was suppressed and APD abbreviated (M cell preparations; ranolazine 5-20 μM, 100 μM d-sotalol, M cell preparations): 4/4
